Test system: GI-101A tumors
Parameters: species or system nude mice
Conditions: mouse, in vivo

Row | SMILES | Effect on tumor growth
1 | N.N.[Cl][Pt][Cl] [Cisplatin, cis-diamminedichloroplatinum] | decreased the rate of tumor growth, but did not shrink tumors
2 | COc1cccc2c1C(=O)c1c(O)c3c(c(O)c1C2=O)C[C@@](O)(C(=O)CO)C[C@@H]3O[C@H]1C[C@H](N)[C@H](O)[C@H](C)O1 [Doxorubicin, doxorubicin] | did not have any effect on the rate of tumor growth

— patent US20090098529A1 (priority 2006, published 2009)
